Experimental data: patent publication US4133805A, “Cyclic undecapeptides related to somatostatin and intermediates therefor” (American Home Products Corporation, priority 1975, dated 1979)

Columns and labels:
Assay type in all cases: in vivo, Albino male rats
insulin = test: Test Procedure II: arginine-stimulated plasma insulin in nembutal-treated rats
Procedure: (§1) Albino male rats are arranged in three groups (nine rats/group) and injected i.p. with nembutal at 50 mg/kg. Fifteen minutes after the nembutal injection they are injected s.c. according to group with (a) test compound, typically 500-2000 μg/kg; (b) SRIF 200 μg/kg; or (c) physiological saline. Ten minutes later 0.5 ml. of arginine (300 mg/ml, pH 7.2) is injected into the heart. The rats are decapitated five minutes after receiving the arginine, and the blood is collected into Trasylol-EDTA. Appropriate aliquots are then assayed for growth hormone, glucagon and insulin. […] Comparisons between control and experimental values are statistically evaluated by the analysis of variants method and statistical significance (p) at 0.05 or lower is used as the index of activity.

glucagon = test: Test Procedure II: arginine-stimulated plasma glucagon in nembutal-treated rats
Procedure: as §1

growth hormone = test: Test Procedure II: arginine-stimulated plasma growth hormone in nembutal-treated rats; conditions: p = <0.01
Procedure: as §1

**Q.** Which Insulin (insulin; 200 μg/kg s.c., control 167 ± 12, p = <0.01) does the source give for C[C@H](N)C(=O)NCC(=O)N[C@H]1CSSC[C@@H](C(=O)O)NC(=O)[C@H](CO)NC(=O)[C@H]([C@@H](C)O)NC(=O)[C@H](Cc2ccccc2)NC(=O)[C@H]([C@@H](C)O)NC(=O)[C@H](CCCCN)NC(=O)[C@H](Cc2c[nH]c3ccccc23)NC(=O)[C@H](Cc2ccccc2)NC(=O)[C@H](Cc2ccccc2)NC(=O)[C@H](CC(N)=O)NC(=O)[C@H](CCCCN)NC1=O [SRIF, somatostatin] here?
**A.** The Insulin was 117 ± 12 μ units/ml.

**Q.** And the Insulin (insulin; 0.2 mg/kg s.c., control 151 ± 15, p = <0.05)?
**A.** Its Insulin is 111 ± 10 μ units/ml.

**Q.** What about the Glucagon (glucagon; 200 μg/kg s.c., control 62 ± 8, p = <0.01) of the same compound?
**A.** Its Glucagon is 13 ± 4 pg/mL.

**Q.** And the Glucagon (glucagon; 0.2 mg/kg s.c., control 20 ± 1, p = <0.05)?
**A.** Its Glucagon is 12 ± 3 pg/mL.

**Q.** What about the GH (growth hormone; 10 μg/kg s.c., control 543 ± 86) of the same compound?
**A.** The GH was 241 ± 15 ng/mL.

**Q.** What about the GH (growth hormone; 20 μg/kg s.c., control 619 ± 103) of the same compound?
**A.** Its GH is 232 ± 87 ng/mL.

**Q.** What about the GH (growth hormone; 0.2 mg/kg s.c., control 287 ± 53) of the same compound?
**A.** The GH was 65 ± 16 ng/mL.
